Tested on: Genes belonging to other category
Assay: DNA chip mRNA expression in yeast, genes belonging to other category (Table 9)
Assay type: cell-based, Saccharomyces cerevisiae S288C
Experimental: Yeast (Saccharomyces cerevisiae S288C (α SUC2mal mel gap2 CUP1)) were incubated at 25° C. on YPD medium (yeast extract 1%, polypepton 2%, glucose 2%). One of toxic chemical substances was added to the cells at logarithmic growth phase, and the cells were further incubated for two hours. Cells were cultured without any chemical substance in the same condition, and were used as control. Concentrations of the chemical substances were defined to inhibit the growth of the yeast but not lead to death.
After completion of the incubation, the culture was centrifuged to collect the cells. To the cells, sodium acetate buffer (50 mM sodium acetate, 10 mM EDTA, 1% SDS) was added, and the mixture was shaken at 65° C. for five minutes, followed by returning to room temperature, and obtaining the supernatant, of which the procedures were repeated two times. To the supernatant, ½ amount of a solution of phenol/chloroform was added, and the mixture was centrifuged to give a supernatant, which was added with an equal amount of chloroform, and the mixture was centrifuged to give a supernatant. To the supernatant, an equal amount of isopropanol containing 0.3 M sodium acetate was added, and the mixture was allowed to stand at room temperature for 30 minutes, after which the mixture was centrifuged to give a sediment of the whole RNAs. Seventy % ethanol was added to the sediment, and the mixture was again centrifuged to give a sediment, which was then dried and dissolved in water. mRNA was isolated from the whole RNAs as followings. In view of the fact that a poly A chain is attached to the 3′ terminus of mRNA, a polynucleotide having a poly T structure which was immobilized on the surface of latex beads was used to trap the mRNA, and then the mRNA was washed and eluted with spine column (Oligotex-dT30<Super>mRNA Purification Kit, Takara). Reverse transcription of the mRNA was conducted with a reverse transcriptase (Super Script II Reverse Transcriptase; catalogue No. 18064-014, GibcoBRL) using fluorescence-labeled nucleotides to give cDNAs that were introduced with Cy3-dUTP or Cy5-dUTP during the reverse transcription.
The labeled cDNAs were dissolved in TE buffer (10mM Tris-HCl/1 mM EDTA, pH8.0), and the solution was dropped on the DNA chip containing the whole genes of yeast (DNA Chip Research Inc. Japan) so that the cDNAs were hybridized on the DNA chip at 65° C. for over 12 hours. The fluoresces intensity of the DNA chip was read with a scanner, and the ratio relative to the fluorescence intensity resulting from the absence of chemical substance was estimated as the following, which is shown in Tables 1 to 9: […]

In the case of `CCCCCCCCCCCCc1ccc(S(=O)(=O)[O-])cc1.[Na+]` [(17), sodium dodecylbenzosulfonate], the “The level of expressed mRNA in the presence of chemical substance/The level of expressed mRNA in the absence of chemical substance” value (yeast gene YKL008C) is reported as 1.4, the “The level of expressed mRNA in the presence of chemical substance/The level of expressed mRNA in the absence of chemical substance” value (yeast gene YKL013C) is reported as 1.6 and the “The level of expressed mRNA in the presence of chemical substance/The level of expressed mRNA in the absence of chemical substance” value (yeast gene YKL039W) is reported as 1.2. The “The level of expressed mRNA in the presence of chemical substance/The level of expressed mRNA in the absence of chemical substance” value (yeast gene YKL096W) was 0.5, the “The level of expressed mRNA in the presence of chemical substance/The level of expressed mRNA in the absence of chemical substance” value (yeast gene YKL165C) was 0.9 and the “The level of expressed mRNA in the presence of chemical substance/The level of expressed mRNA in the absence of chemical substance” value (yeast gene YKL193C) was 1.2. The “The level of expressed mRNA in the presence of chemical substance/The level of expressed mRNA in the absence of chemical substance” value (yeast gene YLR120C) was 3.5, the “The level of expressed mRNA in the presence of chemical substance/The level of expressed mRNA in the absence of chemical substance” value (yeast gene YLR136C) was 1.8 and the “The level of expressed mRNA in the presence of chemical substance/The level of expressed mRNA in the absence of chemical substance” value (yeast gene YLR178C) was 2.0. For the same molecule, the “The level of expressed mRNA in the presence of chemical substance/The level of expressed mRNA in the absence of chemical substance” value (yeast gene YLR250W) was 1.4, the “The level of expressed mRNA in the presence of chemical substance/The level of expressed mRNA in the absence of chemical substance” value (yeast gene YLR327C) was 3.3 and the “The level of expressed mRNA in the presence of chemical substance/The level of expressed mRNA in the absence of chemical substance” value (yeast gene YLR356W) was 1.1. The “The level of expressed mRNA in the presence of chemical substance/The level of expressed mRNA in the absence of chemical substance” value (yeast gene YLR362W) was 1.2, the “The level of expressed mRNA in the presence of chemical substance/The level of expressed mRNA in the absence of chemical substance” value (yeast gene YLR391W) was 1.4 and the “The level of expressed mRNA in the presence of chemical substance/The level of expressed mRNA in the absence of chemical substance” value (yeast gene YLR429W) was 1.0. The “The level of expressed mRNA in the presence of chemical substance/The level of expressed mRNA in the absence of chemical substance” value (yeast gene YMR004W) was 0.9, the “The level of expressed mRNA in the presence of chemical substance/The level of expressed mRNA in the absence of chemical substance” value (yeast gene YMR094W) was 1.0 and the “The level of expressed mRNA in the presence of chemical substance/The level of expressed mRNA in the absence of chemical substance” value (yeast gene YMR104C) was 2.8. The “The level of expressed mRNA in the presence of chemical substance/The level of expressed mRNA in the absence of chemical substance” value (yeast gene YMR219W) was 1.1, the “The level of expressed mRNA in the presence of chemical substance/The level of expressed mRNA in the absence of chemical substance” value (yeast gene YMR226C) was 1.6 and the “The level of expressed mRNA in the presence of chemical substance/The level of expressed mRNA in the absence of chemical substance” value (yeast gene YMR275C) was 0.9. The “The level of expressed mRNA in the presence of chemical substance/The level of expressed mRNA in the absence of chemical substance” value (yeast gene YMR276W) was 1.2, the “The level of expressed mRNA in the presence of chemical substance/The level of expressed mRNA in the absence of chemical substance” value (yeast gene YMR314W) was 1.3 and the “The level of expressed mRNA in the presence of chemical substance/The level of expressed mRNA in the absence of chemical substance” value (yeast gene YNL006W) was 1.0. For the same molecule, the “The level of expressed mRNA in the presence of chemical substance/The level of expressed mRNA in the absence of chemical substance” value (yeast gene YNL007C) was 1.1, the “The level of expressed mRNA in the presence of chemical substance/The level of expressed mRNA in the absence of chemical substance” value (yeast gene YNL093W) was 3.0 and the “The level of expressed mRNA in the presence of chemical substance/The level of expressed mRNA in the absence of chemical substance” value (yeast gene YNL333W) was 1.4. For the same molecule, the “The level of expressed mRNA in the presence of chemical substance/The level of expressed mRNA in the absence of chemical substance” value (yeast gene YNR010W) was 1.7, the “The level of expressed mRNA in the presence of chemical substance/The level of expressed mRNA in the absence of chemical substance” value (yeast gene YNR069C) was 1.1 and the “The level of expressed mRNA in the presence of chemical substance/The level of expressed mRNA in the absence of chemical substance” value (yeast gene YOL013C) was 1.1. The “The level of expressed mRNA in the presence of chemical substance/The level of expressed mRNA in the absence of chemical substance” value (yeast gene YOL164W) was 1.1, the “The level of expressed mRNA in the presence of chemical substance/The level of expressed mRNA in the absence of chemical substance” value (yeast gene YOR036W) was 1.6 and the “The level of expressed mRNA in the presence of chemical substance/The level of expressed mRNA in the absence of chemical substance” value (yeast gene YOR117W) was 1.4. The “The level of expressed mRNA in the presence of chemical substance/The level of expressed mRNA in the absence of chemical substance” value (yeast gene YOR124C) was 1.0, the “The level of expressed mRNA in the presence of chemical substance/The level of expressed mRNA in the absence of chemical substance” value (yeast gene YOR132W) was 1.2 and the “The level of expressed mRNA in the presence of chemical substance/The level of expressed mRNA in the absence of chemical substance” value (yeast gene YOR157C) was 1.2. For the same molecule, the “The level of expressed mRNA in the presence of chemical substance/The level of expressed mRNA in the absence of chemical substance” value (yeast gene YOR181W) was 1.1, the “The level of expressed mRNA in the presence of chemical substance/The level of expressed mRNA in the absence of chemical substance” value (yeast gene YOR185C) was 0.9 and the “The level of expressed mRNA in the presence of chemical substance/The level of expressed mRNA in the absence of chemical substance” value (yeast gene YOR198C) was 1.1. For the same molecule, the “The level of expressed mRNA in the presence of chemical substance/The level of expressed mRNA in the absence of chemical substance” value (yeast gene YOR259C) was 0.9, the “The level of expressed mRNA in the presence of chemical substance/The level of expressed mRNA in the absence of chemical substance” value (yeast gene YOR261C) was 1.0 and the “The level of expressed mRNA in the presence of chemical substance/The level of expressed mRNA in the absence of chemical substance” value (yeast gene YOR288C) was 1.5. The “The level of expressed mRNA in the presence of chemical substance/The level of expressed mRNA in the absence of chemical substance” value (yeast gene YOR355W) was 0.8, the “The level of expressed mRNA in the presence of chemical substance/The level of expressed mRNA in the absence of chemical substance” value (yeast gene YOR383C) was 1.4 and the “The level of expressed mRNA in the presence of chemical substance/The level of expressed mRNA in the absence of chemical substance” value (yeast gene YPL089C) was 1.5. For the same molecule, the “The level of expressed mRNA in the presence of chemical substance/The level of expressed mRNA in the absence of chemical substance” value (yeast gene YPL109C) was 1.2, the “The level of expressed mRNA in the presence of chemical substance/The level of expressed mRNA in the absence of chemical substance” value (yeast gene YPL149W) was 2.2 and the “The level of expressed mRNA in the presence of chemical substance/The level of expressed mRNA in the absence of chemical substance” value (yeast gene YPL154C) was 1.6. The “The level of expressed mRNA in the presence of chemical substance/The level of expressed mRNA in the absence of chemical substance” value (yeast gene YPR103W) was 1.2 and the “The level of expressed mRNA in the presence of chemical substance/The level of expressed mRNA in the absence of chemical substance” value (yeast gene YPR108W) was 1.0.

From patent US8192962B2, “Processes for detecting toxic substances” (Daikin Industries, Ltd., priority 2001, dated 2012)
